{"source": "patent US12428445B2", "about": "“Mini-nucleosome core proteins and use in nucleic acid delivery” (priority 2018, dated 2025)", "key": {"[1]": {"assay": "Transmission Electron Microscopy (TEM) of loaded mini-nucleosomes (shape)", "assay_type": "physicochemical", "settings": "Luciferase plasmid (SEQ ID NO: 396) condensed with core protein; final formulation in sterile, endotoxin free water", "from_the_text": "Provided in this Example are techniques to produce loaded mini-nucleosomes in various formulations, including formulations useful for administration to cells and to mammalian subjects, e.g., humans. Loaded mini-nucleosomes can be formulated to different shape and/or sizes parameters based on the mini-nucleosome core protein amino acid sequence and the buffer conditions in which the synthesis occurs. Loaded mini-nucleosomes can be formulated in different conditions, e.g., with solubility suitable for therapeutic use. Solubility of loaded mini-nucleosomes in water and/or normal saline is one means to allow non-toxic formulation of compositions for administration to patients, and to ease of delivery into patients. To form loaded mini-nucleosomes represented in FIG. 7, core proteins were synthesized by solid phase synthesis using trifluoroacetate buffers. 200 micrograms of DNA (SEQ ID NO: 396) were added to 1 milligram of lyophilized core proteins and vortexed together, and purified to produce loaded mini-nucleosomes (FIG. 7). Buffer exchange was performed and final formulation of mini-nucleosome was made in sterile, endotoxin free water. 1 microgram of each kind of mini-nucleosomes was diluted in water and then placed on grids that were stained with freshly prepared in 0.75% uranyl acetate in methanol solution for two minutes. […]"}, "muscle cells": {"tested_on": "muscle cells", "assay": "Intramuscular delivery, GFP fluorescence and dystrophin immunolabeling in leg muscle sections", "assay_type": "in vivo", "settings": "17.5 ug per leg, Balb/c mice, 3-months post injection", "description": "Balb/c mice were anesthetized by IP injection with Ketamine/Xylazine (90-100 mg/kg+10 mg/kg) and several loaded mini-nucleosomes were injected into both leg muscle at 17.5 ug doses per leg using an insulin syringe (Total dose 35 micrograms per mice). Mice were sacrificed at various time points and leg muscle were obtained for tissue sections. […] One skilled in the art may contemplate combining such domains with other domains known for muscle tropism.\nTo validate muscle specificity of expression of genes encoded by the nucleic acid cargo, we utilized dystrophin immunolabeling as an endogenous secondary marker. […] Native fluorescence of GFP was obtained in the 486-nm channel of Leica SP5 scope. Dystrophin in red is the RFP channel (555-nm). Untransduced muscle cells in figure also serve as internal control for differentiation between GFP signal and autofluorescence."}, "retina and RPE cells": {"tested_on": "retina and RPE cells", "assay": "Intraocular (intravitreal) delivery, native GFP fluorescence in retinal sections and RPE whole mounts", "assay_type": "in vivo", "settings": "1.5 micrograms, Balb/c mice", "description": "In the present Example, Balb/c mice were anesthetized by IP injection with Ketamine/Xylazine (90-100 mg/kg+10 mg/kg) and positioned underneath a microscope. Mice eyes were dilated with topical Tropicamide (1%) and 1 ul of loaded mini-nucleosomes (total dose 1.5 micrograms in mice) were injected into the vitreous cavity using 32 gauze blunt needle passing through the incision made by a 25-gauze needle below the limbus. At various time points, mice were perfused with 10 ml of 1×PBS, and then sacrificed using standard techniques. Mice were enucleated and eyecups were collected and incubated in 4% paraformaldehyde overnight. The eyecups were washed with 1×PBS, then immersed in 15% sucrose for few hours and then in 30% sucrose solution overnight for cryopreservation. The eyecups were then placed in a plastic vial and frozen using OCT compound for cryo-sectioning. 10-micron thick tissue sections were obtained for staining. The retinal sections were mounted with mounting media with or without DAPI, coverslip and sealed. Images were acquired by Leica SP5. For whole mount imaging, eyecups were fixed in 4% paraformaldehyde overnight. Eyecups were washed in 1×PBS, retina was removed and the remaining eyecup or RPE wholemount was processed for staining. The RPE tissue was whole mounted with mounting media, coverslip and sealed. Images were acquired by Leica SP5.\nTo target the RPE cells, the present Example utilized a mini-nucleosome core protein (SEQ ID NO: 392) that could bind to the phagocytic proteins like MERTK. RPE are phagocytic cells, that extend their microvilli to the photoreceptor inner/outer segment junction. MERTK is expressed in those microvilli. In SEQ ID NO: 392, we incorporated the “eat me” signals as descried in Table 8. In literature, “eat me” signals are described as domains exposed in cellular debris that are primed for phagocytosis (Wei Li, Journal of Cell physiology, 2016, which is incorporated herein by reference). To the present inventor's knowledge, these “eat me” signals have never been utilized in the context of non-viral vectors before. […]"}}, "note": "Where no end group is shown, it is not given here. [ ]: non-standard residue; d: D form. LINKER = not defined here", "data": [{"substance": "CKKKKKKKKKKKKKKKKKKKKKKKKKKKKKK [SEQ ID NO: 393, reference compound]", "values": [{"measurement": "Shape of loaded mini-nucleosome (TEM)", "setting": "[1]", "result": "spiral/helical-shaped"}, {"measurement": "GFP fluorescence in muscle tissue sections at 3 months", "setting": "muscle cells", "result": "didn't exhibit GFP fluorescence"}]}, {"substance": "KKKRHRKKKKK-[LINKER]-RGD-[LINKER]-KKKK-[LINKER]-NTQIH-[LINKER]-RRRRR-[LINKER]-TPH-[LINKER]-KK (KKKRHRKKKKK[LINKER]RGD[LINKER]KKKK[LINKER]NTQIH[LINKER]RRRRR[LINKER]TPH[LINKER]KK; reading uncertain; also: linker structure not given here) [SEQ ID NO: 391]", "values": [{"measurement": "Shape of loaded mini-nucleosome (TEM)", "setting": "[1]", "result": "mixture of circular and rod like molecules"}, {"measurement": "GFP fluorescence in muscle tissue sections at 3 months", "setting": "muscle cells", "result": "sharp green fluorescence in skeletal muscle cells"}]}, {"substance": "KKKRHRKRKRKRKRRRRKKK-[LINKER]-ASSLNIAK-[LINKER]-RRRR (KKKRHRKRKRKRKRRRRKKK[LINKER]ASSLNIAK[LINKER]RRRR; reading uncertain; also: linker structure not given here) [SEQ ID NO: 389]", "values": [{"measurement": "GFP fluorescence in muscle tissue sections at 3 months", "setting": "muscle cells", "result": "didn't exhibit GFP fluorescence"}]}, {"substance": "SEQ ID NO. 388 (KKRHRKLREKRHRKLRRRRRLKRHRKKRHRKLREK; not fully specified)", "values": [{"measurement": "GFP expression / transduction in retina and RPE", "setting": "retina and RPE cells", "result": "express GFP to target neuronal cells in the retina"}]}, {"substance": "SEQ ID NO. 392 (KKKRKKTKKKAKKALKKKKKGKKKKRRRRKAAPKK; not fully specified)", "values": [{"measurement": "GFP expression / transduction in retina and RPE", "setting": "retina and RPE cells", "result": "enhanced uptake into the RPE"}]}, {"substance": "SEQ ID NO:388 (KKRHRKLREKRHRKLRRRRRLKRHRKKRHRKLREK; not fully specified)", "values": [{"measurement": "GFP expression / transduction in retina and RPE", "setting": "retina and RPE cells", "result": "transduction into ganglion cells, bipolar cells and photoreceptors"}]}]}
